What was measured:
Type in all cases: physicochemical
[1] = Primary screening of photostability of the CyNA library (time-course fluorescence, 8 h); design: F/Fo, fluorescent intensity at 8 hours vs 0 hours: unit: %; settings: 10 μM in HEPES 100 mM pH 7.4, 2% DMSO
Protocol: As a primary evaluation of photo stability, the decrease in fluorescence intensity of the 80 CyNA compounds was measured (see Table 2). The average decrease in fluorescence intensity after 8 hours of irradiation by a xenon lamp was approximately 18%. A subset of the most photostable compounds (i.e., F/Fo reported in Table 2 was greater than or equal to 95) was examined under stronger irradiation in various buffers.
10-μM CyNA solutions in 100 mM HEPES buffer (pH 7.4) containing 2% DMSO were placed in a 96-well black plate, and fluorescence intensity measurements were recorded every 10 minutes for a total period of 8 hours (excitation-emission: 790-820 nm). A subset of fourteen compounds selected according to their F8h/Fo quotients, quantum yields and maximum relative fluorescence units (RFU) values was further evaluated in a secondary screening

[2] = Absorbance and fluorescence maximum wavelengths and quantum yields of the CyNA library; settings: for λabs, absorbance maximum wavelength / λem, fluorescence maximum wavelength: CyNA library; for φ, quantum yield: in DMSO, Cardiogreen as standard
Protocol: Since the k values of the different CyNA compounds indicated some dependency on the chemical structure of the amine, the CyNA scaffold was derivatized with a broad range of primary amines (FIGS. 4A-4C). The fluorescence properties of the 80-member CyNA library were measured. The absorption maximum wavelengths ranged from 802 nm to 806 nm, emission maximum wavelengths ranged from 817 nm to 823 nm, and the average quantum yield was approximately 0.10 (Table 2).
All the chemicals (building block amines plus others) and solvents were purchased from Sigma Aldrich, Alfa Aesar, Fluka, MERCK or Acros, and used without further purification. ^1H-NMR and ^13C-NMR spectra were recorded on Bruker Avance 300 NMR and 500 NMR spectrometers, and chemical shifts are expressed in parts per million (ppm). High-resolution mass spectrometry (HRMS) data was recorded on a Micromass VG 7035. Photobleaching experiments were performed using a UVP Blak-Ray® B-100AP high intensity UV lamp (100 W, 365 nm) Spectroscopic and quantum yield data were measured on a SpectraMax M2 spectrophotometer (Molecular Devices), and the data analysis was performed using GraphPrism 5.0. Photobleaching measurements were performed using an Eclipse Ti-U Nikon microscope (filter cube: 750/800) attached to Ti:sappire oscillator that operated in continuous wave mode, and the data was processed using the software NIS-Elements 3.10. In vivo images were taken in an IVIS Spectrum imaging system (Caliper Life Sciences).

[3] = Characterization of the CyNAMLA library (absorbance maximum wavelengths); settings: absorbance maximum wavelength of CyNAMLA library compounds
Protocol: The amine group of 21 was protected using di-tert-butyl dicarbonate then derivatized with 80 different primary amines (for structures, see FIGS. 14A-14D). After acetylation of the newly-introduced amine, the compounds were treated with a solution of TFA-DCM (1:9) to remove the tert-butylcarbamate protecting group. The deprotected amine was then coupled to lipoic acid to yield CyNAMLA derivatives with an average purity of 90% (for HPLC-determined purities, see Table 6).

[4] = Primary screen of SERS intensities of CyNAMLA-functionalized AuNPs (compact Raman scanner); settings: SERS spectra of CyNAMLA-functionalized AuNPs; excitation at 785 nm, laser power 60 mW
Protocol: FIG. 15 is a graph of the comparative surface-enhanced Raman spectroscopy (SERS) intensities of members of the CyNAMLA library measured with an excitation wavelength of 785 nm and a laser power of 60 mW in a compact Raman scanner.
The CyNAMLA compounds were adsorbed onto AuNPs having a diameter of approximately 60 nm, and the SERS properties of the resulting CyNAMLA-functionalized AuNPs were evaluated using a compact Raman scanner. Among metal nanoparticles, AuNPs are particularly suitable for in vivo applications due to their low toxicity, adaptability to bioconjugation, and reproducible signal intensity and quantification.

SMILES | F/Fo, fluorescent intensity at 8 hours vs 0 hours [1] | max RFU, maximum relative fluorescence units [1] | λabs, absorbance maximum wavelength [2] | λem, fluorescence maximum wavelength [2] | φ, quantum yield [2] | λabs (max) [3] | Raman intensity [4]
CCCN1/C(=C/C=C2\CCCC(/C=C/C3=[N+](CCC)c4ccccc4C3(C)C)=C2N(Cc2cccc(C)c2)C(C)=O)C(C)(C)c2ccccc21 [CyNA-398] | 99 | 540.2 | 804 nm | 819 nm | 0.07 |  | 
CCCN1/C(=C/C=C2\CCCC(/C=C/C3=[N+](CCC)c4ccccc4C3(C)C)=C2N(Cc2ccc(F)cc2F)C(C)=O)C(C)(C)c2ccccc21 [CyNA-399] | 95 | 775.5 | 804 nm | 819 nm | 0.10 |  | 
CCCN1/C(=C/C=C2\CCCC(/C=C/C3=[N+](CCC)c4ccccc4C3(C)C)=C2N(Cc2ccccn2)C(C)=O)C(C)(C)c2ccccc21 [CyNA-401] | 91 | 856.5 | 805 nm | 820 nm | 0.10 |  | 
CCCN1/C(=C/C=C2\CCCC(/C=C/C3=[N+](CCC)c4ccccc4C3(C)C)=C2N(Cc2cccc(Cl)c2)C(C)=O)C(C)(C)c2ccccc21 [CyNA-403] | 45 | 261.6 | 805 nm | 819 nm | 0.05 |  | 
CCCN1/C(=C/C=C2\CCCC(/C=C/C3=[N+](CCC)c4ccccc4C3(C)C)=C2N(CCc2cccc(F)c2)C(C)=O)C(C)(C)c2ccccc21 [CyNA-405] | 83 | 138.5 | 806 nm | 820 nm | 0.06 |  | 
CCCCCCCCCCN(C(C)=O)C1=C(/C=C/C2=[N+](CCC)c3ccccc3C2(C)C)CCC/C1=C\C=C1\N(CCC)c2ccccc2C1(C)C [CyNA-407] |  | 22.5 | 805 nm | 820 nm | 0.08 |  | 
CCCCCN(C(C)=O)C1=C(/C=C/C2=[N+](CCC)c3ccccc3C2(C)C)CCC/C1=C\C=C1\N(CCC)c2ccccc2C1(C)C [CyNA-419] | 91 | 835.2 | 804 nm | 820 nm | 0.13 |  | 
CCCN1/C(=C/C=C2\CCCC(/C=C/C3=[N+](CCC)c4ccccc4C3(C)C)=C2N(CCCN(C)C)C(C)=O)C(C)(C)c2ccccc21 [CyNA-427] | 100 | 1247.4 | 805 nm | 821 nm | 0.14 |  | 
CCCN1/C(=C/C=C2\CCCC(/C=C/C3=[N+](CCC)c4ccccc4C3(C)C)=C2N(CCC(C)C)C(C)=O)C(C)(C)c2ccccc21 [CyNA-442] | 54 | 424.2 | 806 nm | 822 nm | 0.07 |  | 
CCCN1/C(=C/C=C2\CCCC(/C=C/C3=[N+](CCC)c4ccccc4C3(C)C)=C2N(Cc2ccco2)C(C)=O)C(C)(C)c2ccccc21 [CyNA-446] | 85 | 709.2 | 804 nm | 821 nm | 0.08 |  | 
CCCN1/C(=C/C=C2\CCCC(/C=C/C3=[N+](CCC)c4ccccc4C3(C)C)=C2N(CCc2ccccc2F)C(C)=O)C(C)(C)c2ccccc21 [CyNA-477] |  | 169.8 | 805 nm | 819 nm | 0.09 |  | 
CCCN1/C(=C/C=C2\CCCC(/C=C/C3=[N+](CCC)c4ccccc4C3(C)C)=C2N(CCc2ccc(C)cc2)C(C)=O)C(C)(C)c2ccccc21.[I-] [CyNA-478] | 64 | 121.6 | 805 nm | 821 nm | 0.09 |  | 
CCCN1/C(=C/C=C2\CCCC(/C=C/C3=[N+](CCC)c4ccccc4C3(C)C)=C2N(CCc2ccccc2Cl)C(C)=O)C(C)(C)c2ccccc21 [CyNA-480] | 51 | 154.8 | 803 nm | 817 nm | 0.06 |  | 
CCCN1/C(=C/C=C2\CCCC(/C=C/C3=[N+](CCC)c4ccccc4C3(C)C)=C2N(CC(C)C)C(C)=O)C(C)(C)c2ccccc21 [CyNA-487] | 30 | 45.3 | 806 nm | 823 nm | 0.04 |  | 
CCCN1/C(=C/C=C2\CCCC(/C=C/C3=[N+](CCC)c4ccccc4C3(C)C)=C2N(Cc2ccc(Cl)cc2Cl)C(C)=O)C(C)(C)c2ccccc21 [CyNA-531] | 100 | 187.5 | 804 nm | 820 nm | 0.08 |  | 
CCCN1/C(=C/C=C2\CCCC(/C=C/C3=[N+](CCC)c4ccccc4C3(C)C)=C2N(Cc2cccc3ccccc23)C(C)=O)C(C)(C)c2ccccc21 [CyNA-542] | 74 | 442.7 | 805 nm | 821 nm | 0.08 |  | 
CCCN1/C(=C/C=C2\CCCC(/C=C/C3=[N+](CCC)c4ccccc4C3(C)C)=C2N(CC(c2ccccc2)c2ccccc2)C(C)=O)C(C)(C)c2ccccc21 [CyNA-548] |  | 67.6 | 804 nm | 820 nm | 0.04 |  | 
CCCN1/C(=C/C=C2\CCCC(/C=C/C3=[N+](CCC)c4ccccc4C3(C)C)=C2N(Cc2ccc(Cl)c(Cl)c2)C(C)=O)C(C)(C)c2ccccc21 [CyNA-565] | 96 | 335.5 | 805 nm | 821 nm | 0.09 |  | 
CCCCCCCCCCCN(C(C)=O)C1=C(/C=C/C2=[N+](CCC)c3ccccc3C2(C)C)CCC/C1=C\C=C1\N(CCC)c2ccccc2C1(C)C [CyNA-567] | 100 | 279.2 | 805 nm | 820 nm | 0.14 |  | 
CCCN1/C(=C/C=C2\CCCC(/C=C/C3=[N+](CCC)c4ccccc4C3(C)C)=C2N(CC(C)CC)C(C)=O)C(C)(C)c2ccccc21 (stereo not shown) [CyNA-574] | 38 | 321.1 | 803 nm | 818 nm | 0.06 |  | 
CCCN1/C(=C/C=C2\CCCC(/C=C/C3=[N+](CCC)c4ccccc4C3(C)C)=C2N(CCc2ccccc2-c2ccccc2)C(C)=O)C(C)(C)c2ccccc21 [CyNA-599] |  | 105.9 | 805 nm | 819 nm | 0.07 |  | 
CCCN1/C(=C/C=C2\CCCC(/C=C/C3=[N+](CCCNC(=O)CCCCC4CCSS4)c4ccccc4C3(C)C)=C2N(Cc2ccc3c(c2)OCO3)C(C)=O)C(C)(C)c2ccccc21.O=C([O-])C(F)(F)F (stereo not shown) [CyNAMLA-49] |  |  |  |  |  | 806 nm | 2271

Source: US9201014B2, “Development of photostable near-IR cyanine dyes for in vivo imaging” (National University of Singapore, priority 2010, dated 2015)
